Values quoted from earlier work, collected in patent EP4046639A1, “PREVENTION OF PULMONARY VASCULAR LEAK IN COVID-19” (priority 2021, dated 2022).
Read-outs that look alike come from different tables or passages of the source.

Tested on: Covid-19

SMILES: C[C@@H]1C[C@H]2[C@@H]3CCC4=CC(=O)C=C[C@]4(C)[C@@]3(F)[C@@H](O)C[C@]2(C)[C@@]1(O)C(=O)CO [Dexamethason]
- Covid-19 mortality (hospitalized patients, reduced from 24): 20%
- Covid-19 mortality (patients in the intensive care unit (ICU), reduced from 40): 30%
